Reference: ChEMBL document CHEMBL1130976, “5-Aminomethylquinoxaline-2,3-diones. Part I: A novel class of AMPA receptor antagonists” (Bioorg Med Chem Lett, 1998)

Columns and labels:
[1] = target: Glutamate receptors; NMDA/AMPA; assay: In vitro binding affinity to the AMPA receptor using [3H]AMPA binding assay; assay type: protein-complex assay
[2] = tested on: Mus musculus; assay: Tested for anticonvulsion activity in the electroshock-induced convulsion assays in mice after 30 min of ip administration; assay type: functional; details: 0.5 h
[3] = target: Glutamate receptor ionotropic, NMDA 1 (Rattus norvegicus, UniProt P35439); assay: Tested for in vitro binding affinity against glycine-bining site of NMDA receptor using [3H]MDL-105519 binding assay
[4] = tested on: Mus musculus; assay: Tested for anticonvulsion activity in the metrazole-induced convulsion assays in mice after 30 min of ip administration; assay type: functional; details: 0.5 h
[5] = tested on: Mus musculus; assay: Tested for anticonvulsion activity in the electroshock-induced convulsion assays in mice at 50 mg/kg after 30 min (i.p. administration ); assay type: functional; details: route intraperitoneal
[6] = tested on: Mus musculus; assay: Tested for anticonvulsion activity in the electroshock-inducedconvulsion assays in mice at 50 mg/kg after 30 min (i.p. administration ); assay type: functional; details: route intraperitoneal
[7] = tested on: Mus musculus; assay: Tested for anticonvulsion activity in the mice after 1 hr pretreatment of oral administration; assay type: functional
[8] = target: Glutamate receptor ionotropic, AMPA (Rattus norvegicus) (UniProt P19491+P19492+P19493+P19490); assay: Tested for in vitro binding affinity against AMPA receptor using [3H]AMPA binding assay at a concentration of 1 uM; assay type: protein-complex assay
[9] = Tested for solubility in water at pH 7.4; assay type: ADME

SMILES	IC50 [1]	other results
Br.O=[N+]([O-])c1cc2nc(O)c(O)nc2cc1CN1CCC(O)C1 (stereo not given)	330 nM	ED50 [2]: 34 mg/kg
CC1CN1Cc1cc2nc(O)c(O)nc2cc1[N+](=O)[O-] (stereo not given)	2200 nM	
CC1CCCN(Cc2cc3nc(O)c(O)nc3cc2[N+](=O)[O-])C1 (stereo not given)	600 nM	
CN1CCN(Cc2cc3nc(O)c(O)nc3cc2[N+](=O)[O-])CC1	3400 nM	
O=C(O)C1CCCCN1Cc1cc2[nH]c(=O)c(=O)[nH]c2cc1Br (stereo not given)		IC50 [3]: 840 nM
O=[N+]([O-])c1cc2nc(O)c(O)nc2cc1CN1CCCC(O)C1 (stereo not given)	430 nM	
O=C(O)C1(c2ccccc2)CCN(Cc2cc3nc(O)c(O)nc3cc2[N+](=O)[O-])CC1	2000 nM	
Br.O=[N+]([O-])c1cc2nc(O)c(O)nc2cc1CN1CCCC1	280 nM	ED50 [4]: 26 mg/kg; Protection [5]: 40%
O=[N+]([O-])c1cc2nc(O)c(O)nc2cc1CN1CCC1	1500 nM	IC50 [3]: 3800 nM
O=[N+]([O-])c1cc2nc(O)c(O)nc2cc1CN1CCCC(CO)C1 (stereo not given)	520 nM	
COC1CCN(Cc2cc3nc(O)c(O)nc3cc2[N+](=O)[O-])CC1	430 nM	
O=C(O)[C@H]1CCCN1Cc1cc2nc(O)c(O)nc2cc1[N+](=O)[O-]	460 nM	
Br.O=[N+]([O-])c1cc2nc(O)c(O)nc2cc1CN1CC=CC1	490 nM	ED50 [4]: 35 mg/kg; Protection [6]: 60%
CCOC(=O)C1CCN(Cc2cc3nc(O)c(O)nc3cc2[N+](=O)[O-])CC1	350 nM	IC50 [3]: 590 nM
Br.CC1CCN(Cc2cc3nc(O)c(O)nc3cc2[N+](=O)[O-])CC1	370 nM	ED50 [2]: 33 mg/kg; ED50 [4]: 16 mg/kg; ED50 [7]: 54 mg/kg
O=[N+]([O-])c1cc2nc(O)c(O)nc2cc1CN1CCOCC1	660 nM	

SMILES	IC50 [1]	other results
O=C(O)C1CCCN(Cc2cc3nc(O)c(O)nc3cc2Br)C1 (stereo not given)	2500 nM	
O=[N+]([O-])c1cc2nc(O)c(O)nc2cc1CN1CCNCC1	11000 nM	
O=[N+]([O-])c1cc2nc(O)c(O)nc2cc1CN1CCCCCC1	580 nM	
O=[N+]([O-])c1cc2nc(O)c(O)nc2cc1CN1CCCC1CO (stereo not given)	700 nM	
O=C(O)[C@H]1[C@H](O)CCN1Cc1cc2nc(O)c(O)nc2cc1[N+](=O)[O-]	2100 nM	
O=C(O)C1CCN(Cc2cc3nc(O)c(O)nc3cc2Br)CC1	890 nM	
O=C(O)C1CCCCN1Cc1cc2nc(O)c(O)nc2cc1Br (stereo not given)		inhibition [8]: 18%
O=[N+]([O-])c1cc2nc(O)c(O)nc2cc1CN1CCCCC1	290 nM	
NC(=O)C1CCN(Cc2cc3nc(O)c(O)nc3cc2[N+](=O)[O-])CC1	760 nM	
O=C(O)C1CCN(Cc2cc3nc(O)c(O)nc3c([N+](=O)[O-])c2Br)CC1		inhibition [8]: 15%
O=[N+]([O-])c1cc2nc(O)c(O)nc2cc1CN1CC=CCC1	360 nM	
O=[N+]([O-])c1cc2nc(O)c(O)nc2cc1CN1CCC(O)CC1	310 nM	
CCN(CC)Cc1cc2nc(O)c(O)nc2cc1[N+](=O)[O-]	840 nM	
O=[N+]([O-])c1cc2nc(O)c(O)nc2cc1CN1CCC(c2ccccc2)CC1	430 nM	IC50 [3]: 330 nM
Br.O=C(O)C1CCN(Cc2cc3nc(O)c(O)nc3cc2[N+](=O)[O-])CC1	70 nM	solubility [9]: 1680 µg/mL; ED50 [2]: 44 mg/kg; IC50 [3]: 3900 nM
